According to PMC6500773 (Psychopharmacology, 2018):
Read-outs that look alike come from different tables or passages of the source.

What was measured:
mouse striatum = conditions: administered orally, ref Fuwa et al. 2016; cited from earlier work
hDAT [1] = target: T1, hDAT (Homo sapiens, UniProt Q01959); test: Drug-induced release of preloaded [3H]DA from HEK-hDAT cells; type: cell-based; conditions: for releasing efficacy at hDAT: [3H]DA release; for % maximum release ± sem, hDAT [3H]DA: relative to maximal AUC induced by METH (1 or 10 μM)
hDAT [2] = target: T1, hDAT; test: Inhibition of [3H]DA uptake by HEK-hDAT cells; type: cell-based; conditions: for Ratio DAT/SERT: 1/(DAT IC50) divided by 1/(SERT IC50), uptake, higher = more DAT selective
hNET [3] = target: T2, hNET (Homo sapiens, UniProt P23975); test: Drug-induced release of preloaded [3H]NE from HEK-hNET cells; type: cell-based; conditions: for releasing efficacy at hNET: [3H]NE release; for % maximum release ± sem, hNET [3H]NE: relative to maximal AUC induced by METH (0.3 or 1 μM)
hNET [4] = target: T2, hNET; test: cell-based
hDAT [5] = target: T1, hDAT; test: Inhibition of [125I]RTI-55 binding, HEK-hDAT membranes
hSERT [6] = target: T3, hSERT (Homo sapiens, UniProt P31645); test: Drug-induced release of preloaded [3H]5-HT from HEK-hSERT cells; type: cell-based; conditions: for releasing efficacy at hSERT: [3H]5-HT release; for % maximum release ± sem, hSERT [3H]5-HT: relative to maximal AUC induced by METH (0.3–1 mM)
hNET [7] = target: T2, hNET; test: biochemical; type: binding
hSERT [8] = target: T3, hSERT; test: Inhibition of [125I]RTI-55 binding, HEK-hSERT membranes
hSERT [9] = target: T3, hSERT; test: Inhibition of [3H]5-HT uptake by HEK-hSERT cells; type: cell-based
hNET [10] = target: T2, hNET; conditions: read-out: Inhibition of [3H]neurotransmitter uptake IC50 ± sem, hNET [3H]NE; HEK-hNET cells; ref Eshleman et al. 2017; cited from earlier work
hDAT [11] = target: T1, hDAT; conditions: cited from earlier work; for Ratio DAT/SERT: 1/(DAT IC50) divided by 1/(SERT IC50), uptake, ref Eshleman et al. 2017
hNET [12] = target: T2, hNET; conditions: ref Eshleman et al. 2017, cited from earlier work
hDAT [13] = target: T1, hDAT; conditions: relative to maximal METH release; ref Eshleman et al. 2017; cited from earlier work
hSERT [14] = target: T3, hSERT; conditions: relative to maximal METH release; ref Eshleman et al. 2017; cited from earlier work
[15] = read-out: Drug-induced release of [3H]neurotransmitter EC50 ± sem, hNET [3H]NE, HEK-hNET cells
[16] = read-out: Inhibition of [3H]neurotransmitter uptake IC50 ± sem, hNET [3H]NE, HEK-hNET cells
[17] = read-out: Inhibition of [125I]RTI-55 binding Ki ± sem, hDAT, HEK-hDAT membranes
[18] = read-out: Inhibition of [125I]RTI-55 binding Ki ± sem, hNET, HEK-hNET membranes

T3 sequence (P31645 whole entry): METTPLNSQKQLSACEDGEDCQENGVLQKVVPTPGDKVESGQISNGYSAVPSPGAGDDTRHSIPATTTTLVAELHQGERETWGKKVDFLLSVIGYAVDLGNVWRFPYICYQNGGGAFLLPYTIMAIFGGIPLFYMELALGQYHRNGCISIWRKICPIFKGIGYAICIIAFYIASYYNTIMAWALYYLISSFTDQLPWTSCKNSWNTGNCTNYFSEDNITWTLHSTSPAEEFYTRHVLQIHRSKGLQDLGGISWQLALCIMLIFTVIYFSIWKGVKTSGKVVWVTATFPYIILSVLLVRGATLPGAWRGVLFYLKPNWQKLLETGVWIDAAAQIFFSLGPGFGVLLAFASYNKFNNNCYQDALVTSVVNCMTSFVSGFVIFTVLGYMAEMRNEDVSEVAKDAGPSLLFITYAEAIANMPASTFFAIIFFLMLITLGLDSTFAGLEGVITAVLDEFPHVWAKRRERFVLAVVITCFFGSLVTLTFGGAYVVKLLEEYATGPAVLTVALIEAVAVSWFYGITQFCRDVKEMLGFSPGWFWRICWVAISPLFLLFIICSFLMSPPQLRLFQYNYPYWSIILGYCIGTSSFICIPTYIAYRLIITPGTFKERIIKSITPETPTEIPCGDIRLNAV
T1 sequence (Q01959 whole entry): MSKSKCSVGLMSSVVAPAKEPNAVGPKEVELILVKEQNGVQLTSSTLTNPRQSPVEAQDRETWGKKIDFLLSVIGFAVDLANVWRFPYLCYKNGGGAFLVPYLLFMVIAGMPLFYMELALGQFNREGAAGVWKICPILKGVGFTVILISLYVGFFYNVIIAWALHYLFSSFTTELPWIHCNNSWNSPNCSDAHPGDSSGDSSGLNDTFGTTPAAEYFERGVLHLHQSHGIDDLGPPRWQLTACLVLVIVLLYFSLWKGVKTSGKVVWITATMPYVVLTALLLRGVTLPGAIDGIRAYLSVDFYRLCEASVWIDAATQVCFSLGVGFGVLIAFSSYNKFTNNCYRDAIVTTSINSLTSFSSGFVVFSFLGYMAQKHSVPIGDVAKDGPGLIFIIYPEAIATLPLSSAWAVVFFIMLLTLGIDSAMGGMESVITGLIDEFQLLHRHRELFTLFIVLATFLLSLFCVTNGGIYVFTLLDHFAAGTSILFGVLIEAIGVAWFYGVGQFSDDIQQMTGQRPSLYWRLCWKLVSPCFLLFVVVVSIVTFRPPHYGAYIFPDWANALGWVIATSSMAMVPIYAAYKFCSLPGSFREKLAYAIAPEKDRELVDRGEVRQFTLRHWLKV
T2 sequence (P23975 whole entry): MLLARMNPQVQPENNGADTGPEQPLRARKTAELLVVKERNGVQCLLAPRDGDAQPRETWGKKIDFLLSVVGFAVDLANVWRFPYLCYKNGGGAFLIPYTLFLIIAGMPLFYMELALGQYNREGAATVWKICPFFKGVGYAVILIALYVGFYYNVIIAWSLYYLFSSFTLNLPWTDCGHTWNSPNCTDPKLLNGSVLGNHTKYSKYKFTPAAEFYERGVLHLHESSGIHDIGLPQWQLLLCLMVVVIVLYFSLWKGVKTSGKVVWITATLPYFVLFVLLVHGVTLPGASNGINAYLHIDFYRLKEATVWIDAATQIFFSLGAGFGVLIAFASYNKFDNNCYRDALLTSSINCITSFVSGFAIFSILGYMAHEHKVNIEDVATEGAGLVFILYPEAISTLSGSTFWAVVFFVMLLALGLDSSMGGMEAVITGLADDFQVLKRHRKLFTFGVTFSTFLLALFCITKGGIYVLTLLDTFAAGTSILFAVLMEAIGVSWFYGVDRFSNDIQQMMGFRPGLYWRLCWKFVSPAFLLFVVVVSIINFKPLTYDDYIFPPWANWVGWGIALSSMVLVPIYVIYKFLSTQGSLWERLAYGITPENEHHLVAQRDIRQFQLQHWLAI

Q: With CCNC(C)Cc1ccc2occc2c1 (stereo not shown) [5-EAPB, reference compound] as the molecule, how does the “increase in extracellular 5-HT levels” value (mouse striatum) read?
A: Its value is 6- to 12 fold.

Q: What does the source list for CNC(C)Cc1cc2ccccc2o1 (stereo not drawn) [2-MAPB, N,α-dimethyl-2-benzofuranethanamine]?
A: releasing efficacy at hDAT (hDAT [1]): partial release; % maximum release ± sem, hDAT [3H]DA (hDAT [1]): 48.0 ± 2.6%; Ratio DAT/SERT (hDAT [2]): 3.0; releasing efficacy at hNET (hNET [3]): partial release; EC50 (hNET [3]; [15]): 450 ± 120 nM; % maximum release ± sem, hNET [3H]NE (hNET [3]): 63 ± 10%; IC50 (hNET [4]; [16]): 39.3 ± 5.2 nM; Ki (hDAT [5]; [17]): 1630 ± 440 nM; releasing efficacy at hSERT (hSERT [6]): partial release; % maximum release ± sem, hSERT [3H]5-HT (hSERT [6]): 77.3 ± 5.3%; Ki (hNET [7]; [18]): 1990 ± 220 nM; increase in extracellular 5-HT levels (mouse striatum): 6- to 12 fold

Q: What does the source list for CNC(C)Cc1ccc2c(c1)CCO2 (stereo not shown) [5-MAPDB, 1-(2,3-dihydrobenzofuran-5-yl)-N-methylpropan-2-amine]?
A: EC50 (hDAT [1]): 34700 ± 9600 nM; % maximum release ± sem, hDAT [3H]DA (hDAT [1]): 32 ± 13%; Ki (hSERT [8]): 8800 ± 1700 nM; IC50 (hSERT [9]): 113 ± 30 nM; selectivity for SERT over DAT (uptake potency) (hSERT [9]; uptake inhibition potencies): 25 fold; IC50 (hDAT [2]): 2790 ± 800 nM; Ratio DAT/SERT (hDAT [2]): 0.041; EC50 (hNET [3]): 840 ± 310 nM; % maximum release ± sem, hNET [3H]NE (hNET [3]): 64.2 ± 4.7%; IC50 (hNET [4]): 560 ± 180 nM; Ki (hDAT [5]): > 30000 nM; EC50 (hSERT [6]): 340 ± 35 nM; releasing efficacy at hSERT (hSERT [6]): fully efficacious; % maximum release ± sem, hSERT [3H]5-HT (hSERT [6]): 95.7 ± 8.9%; Ki (hNET [7]): > 30000 nM

Q: Which results are given for CCCC(NC)C(=O)c1ccccc1 (stereo not shown) [Pentedrone]?
A: IC50 (hNET [10]): 239 ± 67 nM; Ratio DAT/SERT (hDAT [11]): 51

Q: Which “releasing efficacy at hDAT” value (hDAT [1]) does the source give for CNC(C)Cc1ccc2occc2c1 (stereo not drawn) [5-MAPB, N,α-dimethyl-5-benzofuranethanamine] here?
A: Its value is “partially efficacious”.

Q: And the “% maximum release ± sem, hDAT [3H]DA” value (hDAT [1])?
A: The value was 53.8 ± 6.6%.

Q: And the “Ratio DAT/SERT” value (hDAT [2])?
A: The value was 1.4.

Q: And the “releasing efficacy at hNET” value (hNET [3])?
A: The value was “partially efficacious”.

Q: What about the EC50 (hNET [3]; [15]) of the same molecule?
A: The EC50 was 580 ± 210 nM.

Q: And the “% maximum release ± sem, hNET [3H]NE” value (hNET [3])?
A: The value was 89.0 ± 8.0%.

Q: And the IC50 (hNET [4]; [16])?
A: Its IC50 is 73 ± 18 nM.

Q: And the Ki (hDAT [5]; [17])?
A: The Ki was 2660 ± 610 nM.

Q: What about the “releasing efficacy at hSERT” value (hSERT [6]) of the same molecule?
A: Its value is “fully efficacious”.

Q: And the “% maximum release ± sem, hSERT [3H]5-HT” value (hSERT [6])?
A: Its value is 104.3 ± 5.7%.

Q: And the Ki (hNET [7]; [18])?
A: Its Ki is 3150 ± 270 nM.

Q: What about the “increase in extracellular 5-HT levels” value (mouse striatum) of the same molecule?
A: The value was 6- to 12 fold.

Q: For CCCC(NC)C(=O)c1ccc2c(c1)OCO2 (stereo not shown) [Pentylone], which IC50 (hNET [10]) is on record?
A: Its IC50 is 650 ± 160 nM.

Q: And the “Ratio DAT/SERT” value (hDAT [11])?
A: Its value is 4.9.

Q: For CNC(C)Cc1ccc2c(c1)OCO2 (stereo not shown) [MDMA, reference compound], which “Ratio DAT/SERT” value (hDAT [2]) is on record?
A: Its value is 0.25.

Q: What about the IC50 (hNET [4]; read-out: Inhibition of [3H]neurotransmitter uptake IC50 ± sem, hNET [3H]NE) of the same molecule?
A: Its IC50 is 630 nM.

Q: What about the EC50 (hNET [12]; [15]) of the same molecule?
A: The EC50 was 360 ± 92 nM.

Q: What about the “% maximum release ± sem, hNET [3H]NE” value (hNET [12]; relative to maximal METH release) of the same molecule?
A: The value was 147 ± 15%.

Q: And the Ki (hDAT [5]; [17])?
A: The Ki was 31000 ± 4900 nM.

Q: What about the “% maximum release ± sem, hDAT [3H]DA” value (hDAT [13]) of the same molecule?
A: Its value is 94 ± 10%.

Q: What about the Ki (hNET [7]; read-out: Inhibition of [125I]RTI-55 binding Ki ± sem, hNET) of the same molecule?
A: The Ki was 15800 nM.

Q: And the “% maximum release ± sem, hSERT [3H]5-HT” value (hSERT [14])?
A: Its value is 85.1 ± 7.8%.

Q: With CN[C@@H](C)Cc1ccccc1 [METH, methamphetamine, reference compound] as the molecule, how does the EC50 (hDAT [1]) read?
A: Its EC50 is 1200 ± 350 nM.

Q: What about the “% maximum release ± sem, hDAT [3H]DA” value (hDAT [1]) of the same molecule?
A: Its value is 106.7 ± 2.3%.

Q: What about the Ki (hSERT [8]) of the same molecule?
A: The Ki was 150000 ± 17000 nM.

Q: And the IC50 (hSERT [9])?
A: Its IC50 is 9300 ± 1100 nM.

Q: What about the IC50 (hDAT [2]) of the same molecule?
A: Its IC50 is 97 ± 13 nM.

Q: And the “Ratio DAT/SERT” value (hDAT [2])?
A: The value was 96.

Q: What about the EC50 (hNET [3]) of the same molecule?
A: Its EC50 is 255 ± 78 nM.

Q: And the “% maximum release ± sem, hNET [3H]NE” value (hNET [3])?
A: The value was 107.5 ± 8.7%.

Q: And the IC50 (hNET [4]; [16])?
A: Its IC50 is 25.8 ± 3 nM.

Q: What about the Ki (hDAT [5]) of the same molecule?
A: The Ki was 4410 ± 430 nM.

Q: And the EC50 (hSERT [6])?
A: The EC50 was 14500 ± 4200 nM.

Q: What about the “% maximum release ± sem, hSERT [3H]5-HT” value (hSERT [6]) of the same molecule?
A: Its value is 101.8 ± 3.1%.

Q: And the Ki (hNET [7])?
A: Its Ki is 2510 ± 240 nM.

Q: Which “DAT selectivity (DAT/SERT)” value (hDAT [11]; ref Eshleman et al. 2013, Luethi et al. 2018) does the source give for CNC(C)C(=O)c1ccc(C)cc1 (stereo not shown) [mephedrone] here?
A: The value was 5.2 fold.

Q: With CNC(COC)C(=O)c1ccc(C)cc1 (stereo not shown) [Mexedrone, 3-methoxy-2-(methylamino)-1-(p-tolyl)propan-1-one] as the molecule, how does the EC50 (hDAT [1]) read?
A: The EC50 was > 100000 nM.

Q: What about the “releasing efficacy at hDAT” value (hDAT [1]) of the same molecule?
A: The value was “no hDAT efficacy”.

Q: What about the “% maximum release ± sem, hDAT [3H]DA” value (hDAT [1]) of the same molecule?
A: The value was 3.04 ± 0.61%.

Q: What about the Ki (hSERT [8]) of the same molecule?
A: Its Ki is 22200 ± 6200 nM.

Q: And the IC50 (hSERT [9])?
A: The IC50 was 5400 ± 1200 nM.

Q: What about the IC50 (hDAT [2]) of the same molecule?
A: The IC50 was 2750 ± 220 nM.

Q: And the “Ratio DAT/SERT” value (hDAT [2])?
A: Its value is 2.0.

Q: What about the EC50 (hNET [3]) of the same molecule?
A: The EC50 was > 61000 nM.

Q: What about the “releasing efficacy at hNET” value (hNET [3]) of the same molecule?
A: The value was “minimal hNET efficacy”.

Q: And the “% maximum release ± sem, hNET [3H]NE” value (hNET [3])?
A: Its value is 12.5 ± 3.1%.

Q: What about the IC50 (hNET [4]) of the same molecule?
A: Its IC50 is 3190 ± 980 nM.

Q: And the Ki (hDAT [5])?
A: The Ki was 8390 ± 540 nM.

Q: What about the EC50 (hSERT [6]) of the same molecule?
A: Its EC50 is 26100 ± 9300 nM.

Q: And the “releasing efficacy at hSERT” value (hSERT [6])?
A: The value was “full efficacy”.

Q: And the “% maximum release ± sem, hSERT [3H]5-HT” value (hSERT [6])?
A: Its value is 84 ± 13%.

Q: What about the Ki (hNET [7]) of the same molecule?
A: The Ki was > 27600 nM.

Q: Which IC50 (hNET [10]) does the source give for CCCC(C(=O)c1ccccc1)N1CCCC1 (stereo not drawn) [α-PVP] here?
A: Its IC50 is 46 ± 18 nM.

Q: What about the “Ratio DAT/SERT” value (hDAT [11]) of the same molecule?
A: The value was 2900.

Q: Which “Ratio DAT/SERT” value (hDAT [11]) does the source give for CCNC(C)C(=O)c1ccc2c(c1)OCO2 (stereo not shown) [ethylone] here?
A: The value was 0.27.
